Test results as given in PubChem BioAssay (NCI).
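48-hour exposure; five concentrations; linearly interpolated endpoints. GI50 is the concentration that inhibits growth by half. TGI is the concentration that stops growth completely.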

Columns and labels:
Experiment in all cases: NCI tumour cell line growth inhibition, 48 h
OVCAR-8 ovarian = tested on: OVCAR-8 ovarian
SNB-19 CNS = tested on: SNB-19 CNS
MALME-3M melanoma = tested on: MALME-3M melanoma
M14 melanoma = tested on: M14 melanoma
SK-MEL-2 melanoma = tested on: SK-MEL-2 melanoma
DU-145 prostate = tested on: DU-145 prostate
UACC-62 melanoma = tested on: UACC-62 melanoma
SF-268 CNS = tested on: SF-268 CNS
SF-295 CNS = tested on: SF-295 CNS
UACC-257 melanoma = tested on: UACC-257 melanoma

Compound	GI50 (OVCAR-8 ovarian) [µM]	TGI (OVCAR-8 ovarian) [µM]	GI50 (SNB-19 CNS) [µM]	TGI (SNB-19 CNS) [µM]	GI50 (MALME-3M melanoma) [µM]	TGI (MALME-3M melanoma) [µM]	GI50 (M14 melanoma) [µM]	TGI (M14 melanoma) [µM]	GI50 (SK-MEL-2 melanoma) [µM]	TGI (SK-MEL-2 melanoma) [µM]	GI50 (DU-145 prostate) [µM]	TGI (DU-145 prostate) [µM]	GI50 (UACC-62 melanoma) [µM]	TGI (UACC-62 melanoma) [µM]	GI50 (SF-268 CNS) [µM]	TGI (SF-268 CNS) [µM]	GI50 (SF-295 CNS) [µM]	TGI (SF-295 CNS) [µM]	GI50 (UACC-257 melanoma) [µM]	TGI (UACC-257 melanoma) [µM]
Cc1ccc2ncnc(N(CC(C)C)CC(C)C)c2c1	12.1	31.9	20.5	42.9	16.8	31.7	14.8	30.8	61.1	> 100	15.5	32.4	14.5	32.1	16.2	37.7	16.7	32.7	–	–
Nc1nc2c(s1)CCc1c-2c(Br)n(Cc2ccccc2)c1Br	6.48	64.2	23.3	86.4	3.76	15.4	14.5	30.2	21.6	43.4	16.1	37.3	10.4	24.7	14.6	39	16.6	33.4	12.1	25.6
Nc1nc(OCc2cc(Br)cs2)c2[nH]cnc2n1	33.3	> 100	37.6	> 100	17.6	97.5	26.7	> 100	28.8	81.3	33	> 100	16.3	59.7	32.3	> 100	25.9	> 100	–	–
O=C1Nc2c(C(F)(F)F)cccc2[C@@]1(c1ccc(O)cc1)c1ccc(OC(F)(F)F)cc1	< 0.01	0.0102	0.0285	0.0974	12.4	25	0.0537	14.1	0.0194	0.0515	0.0303	0.0866	0.0213	0.071	0.327	17.5	0.0193	0.0469	0.938	20.1
Clc1ccc2c(c1)N(c1ncnc3ccc(-c4cnc5[nH]ccc5c4)cc13)CC2	3.25	29.5	4.48	35.5	1.08	19.5	0.992	11.9	2.88	22.8	2.22	19.4	0.982	21.1	3.14	24.1	0.88	19.7	14.8	63.2
O=CNc1ncn[nH]1	–	> 100	–	> 100	–	> 100	–	> 100	–	> 100	–	> 100	–	> 100	–	> 100	–	> 100	–	> 100
COc1cc(-c2nc3ccccc3s2)ccc1NC(=O)COc1ccc(Cl)cc1	2.79	46.6	3.71	19.4	5.07	> 100	8.54	> 100	3.52	15.3	8.28	> 100	2.74	13	3.02	50.4	3.35	25.1	13.5	> 100
CN(Cc1cc(Br)cc(Br)c1O)Cc1cc(Br)cc(Br)c1O	1.94	16.1	4.86	36	3.51	22	1.69	15.6	2.87	11.8	5.48	22.2	1.8	11.8	2.87	21.1	0.847	11.9	2.44	11.5
O=C1c2ccccc2S(=O)(=O)N1CSC(=S)N1CCCCC1	> 100	> 100	> 100	> 100	> 100	> 100	> 100	> 100	> 100	> 100	> 100	> 100	–	> 57.3	> 100	> 100	> 100	> 100	> 100	> 100
Cl.Fc1c[c-]c(-c2ccccn2)c(F)c1.[Pt].c1ccc(P(c2ccccc2)C([PH+](c2ccccc2)c2ccccc2)[PH+](c2ccccc2)c2ccccc2)cc1	2.83	38.5	4.88	> 100	2.5	7.3	3.13	53	2.54	6.7	3.57	20.1	3.03	18	3.22	25.1	3.46	14.7	2.75	8.09
NC(=O)c1ccc(NN=O)nc1	–	> 100	–	> 100	–	> 100	–	> 100	> 100	> 100	–	> 100	–	> 100	–	> 100	–	> 100	–	> 100
C[C@H](Nc1ncnc2nc[nH]c12)c1cc2ccc(F)cc2nc1-c1ccccn1	> 100	> 100	> 100	> 100	> 87.8	> 100	> 100	> 100	> 100	> 100	> 100	> 100	9.29	> 100	> 100	> 100	18.8	> 100	> 100	> 100
CCCCCCCCCCCCCC1=NCCN1CCO	3.4	> 28.1	9.59	26.8	12.7	30.5	3.68	10.9	2.86	9.01	3.88	15.7	1.96	3.95	2.83	8.12	2.19	6.18	12.6	36.9
O=[N+]([O-])c1ccc(Sc2ncnc3nc[nH]c23)c2nonc12	7.23	28.9	20.8	41.9	13.1	> 100	0.94	13.5	4.36	15.9	5.16	> 100	4.91	17.3	5	19.7	3.87	20.6	4.52	18.7
CN(C)c1ccc(N=C2C=CC(=[N+](C)C)C=C2)cc1	4.51	> 100	6.45	> 100	8.97	38.6	17.7	81.4	3.05	13	22.3	> 100	5.25	34.6	11	68.1	4.62	22.1	7.12	24.8
Clc1cccc(Cl)c1C1CSc2ccccc2N=C1c1ccccc1 (stereo unspecified)	3.34	10.2	11.5	24.6	10.9	27.8	8.44	23.1	11.2	24.3	5.74	18.3	5.9	19.6	3.07	11.2	13.6	31.7	13.5	27
CCN(CC)CCOc1ccccc1/C=C/c1noc2ccccc12	–	24.8	–	26.7	–	13.9	–	15.4	–	16.7	–	29.1	–	22.4	–	37	–	29.7	–	15.3
COC1CCN(C(=O)c2cc(Cc3n[nH]c(=O)c4ccccc34)ccc2F)CC1	> 73.2	> 100	57.6	> 100	> 100	> 100	> 90.9	> 100	> 47.1	> 100	> 85.7	> 100	40	> 100	58.3	> 100	24.2	> 100	> 83.2	> 100
COc1cc(OC)c(/C=C\c2ccnc3ccccc23)c(OC)c1	–	–	–	18.2	–	16.5	–	15.2	–	19.4	–	17.2	–	14.6	–	22.8	–	8.35	–	17.8
O=C1c2nsnc2C(=O)c2c(F)c(F)c(F)c(F)c21	2.8	72.7	1.2	2.56	–	–	0.249	0.629	2.17	4.81	1.32	2.63	1.2	2.5	1.6	3.17	1.4	2.99	1.61	3
C/C(=C\CCc1ccoc1)CC/C=C(\C)CCCN1CCOCC1	13.7	28	9.27	23.6	–	–	1.65	3.42	12.2	25.9	10.3	22.3	5.02	18.2	7.03	21.7	3.95	16.1	9.17	21.2
